Assay results reported in patent US20230263787A1, “ENHANCED MITOCHONDRIAL RESPONSE WITH THIOZOLIDINEDIONE, PIOGLITAZONE OR ROSIGLITAZONE” (priority 2020, published 2023).

Columns and labels:
[1] = tested on: DRG axons; assay: Lysolecithin exposure of unmyelinated DRG cultures (axon damage); assay type: cell-based, mouse; conditions: 0.005 mg/ml lysolecithin for 2 hours
[2] = tested on: cerebellar slices from Shiverer mice; assay: Mitochondrial dynamics in dysmyelinated Purkinje cell axons of Shiverer cerebellar slices exposed to lysolecithin; assay type: cell-based, mouse; conditions: chronically dysmyelinated axons
Description: Cerebellar slices were prepared as previously described. Briefly, wild type C57BL/6 and Shiverer mice pups were sacrificed at P10 and cerebellum was placed in ice-cold dissection medium. The sagittal slices were then sectioned into 300 µm thick slices and placed on a membrane insert. Picospritzer III (Parker, US) and a micromanipulator was used to inject mEOS2-Lentivirus (titre 7-8*10^9; aliquots stored at -80° C.) containing 0.025% of Fast-Green (FG, Sigma F7258, UK) in to the Purkinje cell body layer. […]
Live imaging of mitochondria in Purkinje cell axon was performed at DIV14, directly after removing the lysolecithin. […] Newly transported mitochondria, either appearing from the neuronal cell body to the most proximal 20 micron axonal segment or distal axonal mitochondria appearing in the 20 microns long axonal segment of the most distal photoconverted segment, were counted visually and confirmed using the kymograph. […] For each mitochondrion appearing, the direction of movement was noted, as well as the area of the mitochondrion was measured manually, using the measure function in Fiji, when it first appeared in the axon.
Kymographs of the time lapse images were generated by using the ImageJ plugin KymographClear2.0 [40]. Mitochondrial speed of movement was determined by using the Kymotoolbox ImageJ plugin [80]. […]

[3] = tested on: DRG neurons; assay: Seahorse analysis of mitochondrial respiration in DRG neurons; conditions: sodium azide 100 µM for 16 hours
Description: DRG neuronal cells were cultured on V7 Seahorse 24-well cell culture microplates (Agilent Technologies), in maintenance medium in a 5% CO2 37° C. incubator. […] Plates were incubated for 30 mins at 37° C. (without CO2), before entry into the Seahorse XFe24 Extracellular Flux Analyser (Agilent). Three measurements were taken basally, and three measurements taken after injection of each drug to either inhibit ATP-linked respiration, uncouple respiration or inhibit the respiratory chain. Mitochondrial respiration was calculated by subtracting the first OCR measurement following injection of antimycin/rotenone from the third basal OCR measurement. Normalisation of OCR to relative protein content was achieved following Sulforhodamine B (SRB) staining of all cell wells. Data for each treatment groups was averaged from between 4-5 replicate wells.

[4] = tested on: DRG neurons; conditions: 17 hours
Description: Complex IV histochemistry was performed as described below and images were obtained using bright field microscopy. The intensity of the complex IV reactive product was assessed using FIJI and densitometry to analyse complex IV activity at a single cell level.

[5] = tested on: DRG-OPC co-cultures; assay: Axon damage after lysolecithin demyelination in microfluidic chambers, drug applied to neuronal cell body chamber; assay type: cell-based, mouse; conditions: 15 µM SR-18292 added together with pioglitazone to cell body chamber
Description: Before adding lysolecithin to microfluidic chambers, the inventors used an Axio Observer Z1 inverted motorized microscope (Zeiss, Germany), for live imaging to identify the myelinated axonal segments (video 11, online resource). Images of the myelinated axonal segments were saved with x-y coordinates of the stage position. The effect of live imaging on the axons and myelin was determined by imaging microfluidic chamber containing both mKate2 expressing DRGs and eGFP-expressing OPC where imaged at 20x magnification (Plan-Apochromat 0.8 NA Ph 2 M27 objective, Zeiss, Germany) for 30 minutes before returning the microfluidic chambers to the incubator.
The inventors then added lysolecithin for 2 hours before live imaging the previously imaged axonal segments again, using the x-y co-ordinate of the stage position. These live images of axons, pre and post lysolecithin, allowed the assessment of the demyelination of the axonal segments (based on M1-M4-eGFP fluorescence) as well as axonal damage following acute demyelination (based on appearance of mKate2 fluorescence). […] Meanwhile, axons were classed as fragmented when the mKate2 fluorescence was disrupted and not continuous in at least one part of the axon. […] Following exposure to lysolecithin, demyelination was confirmed based on disruption or loss of M1-M4-eGFP fluorescence. […]

L-α-Lysophosphatidylcholine [lysolecithin]
damage to DRG axons in unmyelinated cultures [1]: without damaging the DRG axons | axonal mitochondrial dynamics of newly transported mitochondria [2]: does not significantly impact

[N-]=[N+]=[N-] [sodium azide]
cell viability [3]: without compromising cell viability | highest dose which did not impact cell viability and resulted in complex IV inhibition [4]: 100 µM

Cc1ccc(CN(CC(O)COc2cccc3[nH]ccc23)C(C)(C)C)cc1 (stereo not drawn) [PGC1α inhibitor, SR-18292]
effect on the protective effect of pioglitazone on demyelinated axons [5]: significantly diminished
